Here are results for 7 molecules from patent US20220340908A1, “METHODS FOR DEPLETION OF DELETERIOUS MITOCHONDRIAL GENOMES” (University of Massachusetts, priority 2019, published 2022).

Residues, ends and D or L forms follow the SMILES beside them. *: point of attachment. Cbz = O=C(OCc1ccccc1)*

Data set [1] relates to CoxI G6930A cells. As to the kind of experiment: Respiration assay, oxygen consumption rate (Seahorse), CoxI G6930A cells. The class given is cell-based, human. The procedure: (§1) For mitochondrial respiration assays, oxygen consumption rate (OCR) was measured using a Seahorse Extracellular Flux Analyzer XFe96 (Seahorse Biosciences) as described (40). 14,000 cells were seeded per well and OCR was measured using the Cell MitoStress Kit (as described by the manufacture). 180 μl of XF-Media was added to each well and then the plates were subjected to analysis following sequential introduction of 1.5 μM oligomycin, 1.5 μM FCCP and 0.5 μM rotenone/antimycin as indicated. Data is normalized to total protein as determined by the BCA protein assay.

The test system of data set [2] is CoxI G6930A cybrid cells. As to the kind of experiment: Percentage of CoxI G6930A mtDNA by deep sequencing in cybrid cells. The data set is classed as cell-based, human. The settings on record: for CoxI G6930A mtDNA percentage: 3 weeks, from 86%; for CoxI G6930A mtDNA heteroplasmic ratio: 18.5 weeks continuous, from ˜90%. The procedure:
Library construction for deep sequencing was modified from our previous report (7). Following CDDO treatment, cells were harvested at different time points and genomic DNA extracted. Briefly, regions flanking the CoxI […] site were PCR amplified using locus-specific primers bearing tails complementary to the Truseq adapters as described previously (38). 50-100 ng input genomic DNA (mtDNA included) was PCR amplified with Phusion High Fidelity DNA Polymerase (New England Biolabs):(98° C., 15 s; 67° C. 25 s; 72° C. 18 s)×30 cycles. 1 μl of each PCR reaction was amplified with barcoded primers to reconstitute the TruSeq adaptors using the Phusion High Fidelity DNA Polymerase (New England Biolabs): (98° C., 15 s; 61° C., 25 s; 72° C., 18 s)×9 cycles. Equal amounts of the products were pooled and gel purified. The purified library was deep sequenced using a paired-end 150 bp Illumina MiSeq run.
MiSeq data analysis for editing at target sites or off-target sites was performed using a suite of Unix-based-software tools. First, the quality of the paired-end sequencing reads (R1 and R2 fastq files) was assessed using FastQC (bioinformatics.babraham.ac.uk/projects/fastqc/). Raw paired-end reads were combined using paired end read merger (PEAR) (39) to generate single merged high-quality full-length reads. Reads were then filtered by quality (using Filter FASTQC (38)) to remove those with a mean PHRED quality score under 30 and a minimum per base score under 24. Each group of reads was then aligned to a corresponding reference sequence using BWA (version 0.7.5) and SAMtools (version 0.1.19). To determine background SNP or sequencing errors, all reads from each negative control replicate were combined and aligned, as described above. Background SNP types and frequencies were then cataloged in a text output format at each base using bam-readcount (github.com/genome/bam-readcount). For each drug treatment group, the average background SNP frequencies (based on SNP type, position and frequency) of the triplicate negative control group were subtracted to obtain the accurate SNP frequencies.
(§2) The KSS cell line was a gift from Carlos Moraes (29, 30). The CoxI […] cell line was a gift from Giovanni Manfredi (28). Cells were cultured in DMEM (4 mM L-glutamine, 4.5 g/L glucose; Gibco, Thermo Fisher Scientific) plus 10% FBS with 1% pen-strep. Total cellular mtDNA was prepared as described (40). Cells were incubated continuously in the described concentration of CDDO for the indicated number of days. The cells were sub-cultured prior to confluence every 48 hours.

Data set [3] concerns KSS cybrid cells. The data set can be described thus: KSS ΔmtDNA quantification by qPCR in KSS heteroplasmic cybrid cells. The data set is classed as cell-based, human. The note with it: for KSS ΔmtDNA percentage: 4 weeks, from ˜50%. The procedure:
For human patient fibroblast cell lines, wild-type and ΔKSS primers were used to detect wild-type mtDNA or ΔKSS mtDNA. Primers that amplify a sequence within the B2M ([…]) gene were used as an internal control for normalization. Absolute quantification was also performed to determine the percentage or ratio of KSS ΔmtDNA relative to total mtDNA (KSS ΔmtDNA and wild-type mtDNA) as previously described (11). Primers that specifically amplify wild-type or ΔmtDNA are listed in Table A. Standard curves for each qPCR primer set were generated using purified plasmids individually containing approximately 1 kb of the mtDNA fragments specific for each primer set. A Student's t-test was employed to determine the level of statistical significance.
as §2
Cells were grown on 6-well plates and siRNAs were transfected with Lipofectamine RNAiMAX (Thermo Fisher Scientific) following the manufacturer's instructions. Human LONP1 RNAi was used in knockdown experiment (Dharmacon L-003979-00-0005) (e.g., a pool comprising GGAAAUCGGCCUACAAGAU (SEQ ID NO:1), GCGCAUGUAUGACGUGACA (SEQ ID NO:2), CGAGAGUACUUCCGCUUCA (SEQ ID NO:3), and GAAGAGACCAAUAUUCCUA (SEQ ID NO:4)).
ATF5 shRNA knockdown lentiviral constructs were generated using psp-108 vector (Addgene), and viruses were produced by co-transfection along with plasmids pMD2.G (Addgene) and psPAX2 (Addgene) into HEK293T cells. All viral titers were predetermined, and same number of viral particles was used for experimental and control samples. KSS cells were infected with lentiviruses, selected with puromycin for 5-7 days, and re-plated for proliferation. ATFS knockdown targeting sequences are: shRNA-1, 5′-[…]-3′ (SEQ ID NO:5); shRNA-2, 5′-[…]-3′ (SEQ ID NO:6); shRNA-3, 5′-[…]-3′ (SEQ ID NO:7); see horizondiscovery.com/en/products/gene-modulation/knockdown-reagents/shrna/PIFs/TRC-Lentiviral-shRNA?nodeid=entrezgene-22809#specifications.

For data set [4], the system named is KSS heteroplasmic cells. The data set can be described thus: Respiration assay, oxygen consumption rate (Seahorse), KSS cells. The class given is cell-based, human. The note with it: 0.1 μM or 0.25 μM, 4 weeks. On the procedure: as §1
The subject of data set [5] is KSS ΔmtDNA cells. As to the kind of experiment: Cell viability (trypan blue), KSS cells. The settings on record: 0.1 μM and 0.25 μM CDDO, 72 hours. The class given is cell-based, human. On the procedure: as §2
(§3) At the indicated time points, cells were stained with trypan blue (41) and quantified with an automated cell counter TC-20™ (Bio-Rad). The results are an average of three independent assays.

For data set [6] the following is noted: 20 mg for 56 consecutive days; cited from earlier work.
Data set [7] relates to CoxI G6930A cells. The data set can be described thus: Cell viability (trypan blue), CoxI G6930A cells. The data set is classed as cell-based, human. The note with it: 0.1 μM and 0.25 μM CDDO, 72 hours. The procedure: as §2, §3
Data set [8] has as its target T1, LONP1 protease (Homo sapiens, UniProt P36776).
T1 sequence (P36776 68-959): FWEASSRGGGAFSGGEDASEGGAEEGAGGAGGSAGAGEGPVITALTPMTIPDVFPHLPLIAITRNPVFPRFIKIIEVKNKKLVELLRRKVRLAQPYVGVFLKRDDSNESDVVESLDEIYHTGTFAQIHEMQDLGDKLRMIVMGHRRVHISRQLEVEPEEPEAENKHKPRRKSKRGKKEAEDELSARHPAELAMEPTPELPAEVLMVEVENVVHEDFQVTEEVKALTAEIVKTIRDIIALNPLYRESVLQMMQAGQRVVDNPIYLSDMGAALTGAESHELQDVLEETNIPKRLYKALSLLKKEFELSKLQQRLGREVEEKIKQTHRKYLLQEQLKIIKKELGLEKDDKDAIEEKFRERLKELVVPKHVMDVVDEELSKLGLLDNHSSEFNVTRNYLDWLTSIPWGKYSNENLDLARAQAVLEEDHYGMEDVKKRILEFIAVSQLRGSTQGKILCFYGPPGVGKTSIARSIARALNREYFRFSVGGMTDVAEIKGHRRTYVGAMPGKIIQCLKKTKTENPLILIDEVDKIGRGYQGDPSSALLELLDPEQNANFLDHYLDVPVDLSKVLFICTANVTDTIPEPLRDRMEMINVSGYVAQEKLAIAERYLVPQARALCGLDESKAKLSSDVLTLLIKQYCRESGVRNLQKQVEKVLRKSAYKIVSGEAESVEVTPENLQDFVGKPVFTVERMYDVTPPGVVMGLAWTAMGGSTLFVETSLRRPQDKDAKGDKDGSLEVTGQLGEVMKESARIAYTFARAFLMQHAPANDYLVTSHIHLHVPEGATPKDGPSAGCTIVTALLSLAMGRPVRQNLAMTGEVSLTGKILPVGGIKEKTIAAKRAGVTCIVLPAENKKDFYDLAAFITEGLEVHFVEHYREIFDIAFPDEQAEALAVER
The settings on record: cited from earlier work.

For `CC1(C)CC[C@]2(C(=O)O)CC[C@]3(C)[C@H](C(=O)C=C4[C@@]5(C)C=C(C#N)C(=O)C(C)(C)[C@@H]5CC[C@]43C)[C@@H]2C1` [CDDO, 2-cyano-3,12-dioxo-oleana-1,9(11)-dien-28-oic acid], the “improvement of basal oxygen consumption” value in data set [1] (0.1 μM, 3 weeks) was roughly 2 fold; in data set [1] (18.5 weeks exposure) it was “over 3 fold”. The maximal respiratory capacity entry in data set [1] (CDDO time course, 0.1 μM or 0.25 μM) is “increased”. The “CoxI G6930A mtDNA percentage” value in data set [2] (0.1 μM) is reported as 68%; in data set [2] (0.25 μM) it was 72%. The “CoxI G6930A mtDNA heteroplasmic ratio” value in data set [2] (0.1 μM) is roughly 47%; in data set [2] (0.25 μM), 62%. The “KSS ΔmtDNA percentage” value in data set [3] (0.1 μM) was found to be 19.6%; in data set [3] (0.25 μM) it was 21.2%. Besides, in data set [4], the “increase in basal oxygen consumption” value is roughly 2 fold. In addition, the “viability of KSS cell line” value in data set [5] is on record as “neither concentration affected viability”. Also, the tolerability result in data set [6] was “well tolerated”. The “viability of CoxI G6930A cell line” value in data set [7] is on record as “neither concentration affected viability”.
Turning to `CC(C)C[C@@H](C=O)NC(=O)[C@H](CC(C)C)NC(=O)[C@H](CC(C)C)NC(=O)OCc1ccccc1` [MG132, carbobenzoxy-Leu-Leu-leucinal] (Cbz-Leu-Leu-Leu-aldehyde), the “inhibition of LONP1 protease” value in data set [8] is given as “potent inhibitors”.
On to `C=C1OC(=O)/C(=C\CCCCCCCCCCCCC)[C@@H]1O` [Obtusilactone A], for which, in data set [8], the “inhibition of LONP1 protease” value is recorded as “inhibitors of LONP1 protease”.
As to `O=c1n(CCCN2CCN(c3cccc(Cl)c3)CC2)nc2ccccn12` [Trazadone], in data set [3] (shRNA lentivirus or multiple concentrations of drug, FIG. 11), the “heteroplasmy (ΔmtDNA) in KSS cells” value is listed as “improved heteroplasmy”.
Take (-)-sesamin: the “inhibition of LONP1 protease” value in data set [8] is “inhibitors of LONP1 protease”.
In the case of Z-Leu-Leu-Leu-B(OH)2 [MG262], in data set [8], the “inhibition of LONP1 protease” value is recorded as “potent inhibitors”.

B1: LONP1 siRNA: Dharmacon L-003979-00-0005, siRNA pool comprising SEQ ID NO:1-4 against human LONP1 (nucleic acid)
chain 1: GGAAAUCGGCCUACAAGAU
chain 2: GCGCAUGUAUGACGUGACA
chain 3: CGAGAGUACUUCCGCUUCA
chain 4: GAAGAGACCAAUAUUCCUA
modifications: siRNA pool, further chemistry not given here
Turning to B1, the “decrease of ΔmtDNAs” value in data set [3] (siRNA for 4 days, KSS cybrid line) is 2.7 fold. Besides, the “heteroplasmy ratio (% KSS mtDNA)” value in data set [3] (siRNA for 4 days, from 56.9%) stood at 27.6%.
